Test results as given in US20190381061A1, “LOCAL ANESTHESIA PAIN-RELIEVING TIME-DELAY AGENT” (priority 2013, published 2019).

Key:
peripheral nerve medulla = conditions: cited from earlier work
patient = assay: Local anesthesia for clinical surgical operations: composition combined with a local anesthetic and injected locally; format: in vivo, human
Method: The above components are injected into 4 ml of 0.375% bupivacaine, and a 0.9% saline solution is added so that the total volume became 8 ml, and then, the composition is subcutaneously injected into both eyebrow regions.
The above components were injected into 30 ml of 1% prilocain hydrochloride according to the ratio, and 0.9% […] was added so that the total volume became 60 ml, and then, the composition was subcutaneously, intramuscularly and subperiosteally injected into the operation site of a patient using a 3 cm needle, and as the result, it was concluded that onset time of anesthesia is shortened to 60 seconds from 5 minutes of the existing case wherein only lidocaine was injected, and the duration of anesthetic action is prolonged from the existing 2 hours to 40 days. […].
The above components were injected into 20 ml of 0.5% procaine, and a 0.9% saline solution was added so that the total volume became 40 ml, and then, the composition was sequentially injected subcutaneously, intramusculary and intraperitoneally along the appendectomy scar of the patient using a 3 cm needle, and as the result, it was concluded that onset time of anesthetic is 60 seconds, and the duration of pain relief continues for 40 days. […]. […]

CN(C)c1ccc2nc3ccc(=[N+](C)C)cc-3sc2c1 [Methyleneblue]
concentration at which it may directly injure peripheral nerve medulla to cause irreparable nerve injury (peripheral nerve medulla): > 0.03%

CCN(CC)CC(=O)Nc1c(C)cccc1C [lidocaine]
duration of anesthetic action / pain relief, existing (patient; existing case, without the composition of the example): 2 h | onset time of anesthesia, existing case (patient; only the local anesthetic injected, without the composition): 5 min
